Molecular target: T1, Choline trimethylamine-lyase (UniProt A0AAJ0YC41)
T1 sequence (A0AAJ0YC41 whole entry): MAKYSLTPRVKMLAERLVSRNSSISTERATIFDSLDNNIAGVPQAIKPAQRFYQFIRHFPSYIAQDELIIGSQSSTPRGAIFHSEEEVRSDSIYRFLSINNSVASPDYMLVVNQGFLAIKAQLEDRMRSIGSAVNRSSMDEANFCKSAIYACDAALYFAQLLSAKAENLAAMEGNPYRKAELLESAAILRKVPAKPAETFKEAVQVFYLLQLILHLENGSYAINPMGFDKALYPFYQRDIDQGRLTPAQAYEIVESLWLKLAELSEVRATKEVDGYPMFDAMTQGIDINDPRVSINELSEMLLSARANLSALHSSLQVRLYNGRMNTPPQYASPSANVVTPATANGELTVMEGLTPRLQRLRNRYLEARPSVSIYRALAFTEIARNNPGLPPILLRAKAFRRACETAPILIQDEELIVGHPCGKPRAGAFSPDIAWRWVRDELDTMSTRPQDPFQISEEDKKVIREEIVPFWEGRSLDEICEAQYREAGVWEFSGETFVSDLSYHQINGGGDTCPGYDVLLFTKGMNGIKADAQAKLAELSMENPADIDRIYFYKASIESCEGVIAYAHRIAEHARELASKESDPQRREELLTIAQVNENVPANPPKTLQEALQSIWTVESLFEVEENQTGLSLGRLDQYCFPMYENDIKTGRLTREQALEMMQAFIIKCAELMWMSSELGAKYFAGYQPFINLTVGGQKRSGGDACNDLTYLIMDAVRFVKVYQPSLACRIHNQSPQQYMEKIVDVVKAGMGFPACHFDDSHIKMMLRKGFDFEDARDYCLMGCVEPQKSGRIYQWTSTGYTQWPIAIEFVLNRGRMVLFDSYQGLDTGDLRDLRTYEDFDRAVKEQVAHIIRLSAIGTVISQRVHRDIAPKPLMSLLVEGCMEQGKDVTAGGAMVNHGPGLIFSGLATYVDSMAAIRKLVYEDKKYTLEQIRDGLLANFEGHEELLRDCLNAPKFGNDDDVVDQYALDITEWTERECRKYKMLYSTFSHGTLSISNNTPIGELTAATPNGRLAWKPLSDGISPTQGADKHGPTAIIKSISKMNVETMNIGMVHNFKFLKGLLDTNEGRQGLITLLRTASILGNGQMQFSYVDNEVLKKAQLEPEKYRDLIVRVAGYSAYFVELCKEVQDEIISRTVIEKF
Assay: In Vitro TMA Inhibition
Description: Choline TMA lyase enzymatic activity assays were conducted to measure the conversion of isotope-labeled d9-choline to d9-TMA. Upon thawing an aliquot of frozen clarified lysate on ice and gentle mixing, clarified lysate was diluted to 5 mg/mL in lysis buffer and the necessary co-factors were added (final concentration: 1 mM SAM, 10 mM NaDT, and 2 mM NADH). Potential inhibitor compounds (typically dissolved in H2O) were serially diluted (10-fold) and added to individual reaction mixtures (done in triplicate). The mixture was then allowed to incubate for at least 15 minutes at 22° C. before the addition of substrate (300 μM final d9-choline) to initiate the reaction, which was carried out for 2 hours at room temperature (22° C.) in the dark in gas tight sealed reaction vials. The reactions were quenched with the addition of 200 μL of 1 M NaOH and 0.5 μM of the internal standard ([13C3 15N1]TMA), vortexing and placement in ice. d9-TMA production was quantified using mass spectrometry by measuring the peak area ratio of the precursor to product ion transition of d9-TMA (m/z 69→49) to the internal standard [13C3 15N1]TMA (m/z 64→47).

Structure (SMILES): C[N+](C)(CF)CCOC(=O)c1ccc(O)cc1 [US20260001833, Compound 3]
- IC50: 3.6 µM

— BindingDB's records for patent US20260001833 (The Cleveland Clinic Foundation, 2026)
